These results are taken from patent US20160325911A1, “ANTIMICROBIAL COMPOSITIONS FOR FOOD PACKAGING CONSISTING OF SALICYLALDEHYDE AND CARVACROL, THYMOL OR THEIR MIXTURE” (INSTITUTO TECNOLÓGICO DEL EMBALAJE, TRANSPORTE Y LOGÍSTICA, priority 2014, published 2016).

Common to all, as to type: cell-based
Common to all, as to conditions: alone or as component of the blend, 20 h at 36° C. in TSB

Test [1] relates to Staphylococcus aureus (strain ATCC6538). Nature of the test: Broth dilution MIC and synergy index against Staphylococcus aureus. On the procedure: (§1) Solutions containing carvacrol, thymol and salicylaldehyde were assessed for antimicrobial activity against three different reference microorganisms: • Gram negative bacteria—Escherichia coli (strain ATCC 8739) • Gram negative bacteria—Pseudomonas aeruginosa (strain ATCC 27853) • Gram positive bacteria—Staphylococcus aureus (strain ATCC6538)
(§2) The microorganisms were collected from the “Colección Española de Cultivos Tipo” (CECT), University of Valencia. They were collected in the form of a lyophilized inoculum and were refreshed by regular seeding in solid culture media. After the grown, the stock culture was kept under refrigeration. Prior to the analysis, the microorganisms were recultured 3-4 times by diluting colonies in tryptic soy broth (TSB) and incubating overnight at 36° C.
(§3) The day prior to the assay, the colonies are touched with a loop and transferred to tryptic soy broth (TBS) (100 mL). The broth is incubated at 36° C. overnight until the growth reaches a turbidity equal or similar to 10^9 colony-forming units per millilitre (CFU/mL). The culture is adjusted to give a turbidity equivalent to 0.18 absorbance units in order to confirm the inoculum is in the exponential growth phase (around 10^5-10^6 CFU/mL). The measurement is carried out by using a UV-VIS spectrometer, operating at 550 nm and a 1-cm path cell. […]
(§4) The antimicrobial efficacy of Carvacrol, Thymol and Salycylaldehyde and their blends, was determined as Minimum Inhibitory Concentration (MIC). MIC is recorded as the lowest product concentration that inhibits growth. […]
(§5) Where: • CM is the MIC of the substance n when used in a blend, that is, in combination with the rest of antimicrobial compounds analysed. • CS is the MIC of the substance when used alone.
(§6) SI below 1 indicates synergy effect and p-value has been calculated as the probability of obtaining the observed sample results (or a more extreme result) when the null hypothesis is actually true. […]
(Broth dilution looks for growth in wells or tubes with falling amounts of substance.)

In test [2] the test system is Escherichia coli (strain ATCC 8739). Kind of test: Broth dilution MIC and synergy index against Escherichia coli. How it is done: as §1, §2, §3, §4, §5, §6
The test system of test [3] is Pseudomonas aeruginosa (strain ATCC 27853). Nature of the test: Broth dilution MIC and synergy index against Pseudomonas aeruginosa. How it is done: as §1, §2, §3, §4, §5, §6
The mark [4] stands for this setting: amount of salicylaldehyde at the MIC.

Molecules are shown by their SMILES.

For `Cc1ccc(C(C)C)cc1O` [Carvacrol, carvacrol], the “MIC Staphylococcus aureus, Carvacrol” value in test [1] (amount of carvacrol at the MIC) stood at 2.1 mg. Besides, in test [2] (amount of carvacrol at the MIC), the “MIC Escherichia coli, Carvacrol” value was 3 mg. Besides, in test [3] (amount of carvacrol at the MIC), the “MIC Pseudomonas aeruginosa, Carvacrol” value is reported as 7.5 mg.

In the case of `O=Cc1ccccc1O` [Salicylaldehyde, salicylaldehyde], in test [1] (setting [4]), the “MIC Staphylococcus aureus, Salicylaldehyde” value came to 4.75 mg. Further, in test [2] (setting [4]), the “MIC Escherichia coli, Salicylaldehyde” value worked out at 4.75 mg. In addition, in test [3] (setting [4]), the “MIC Pseudomonas aeruginosa, Salicylaldehyde” value stood at 2.25 mg.

In the case of `Cc1ccc(C(C)C)c(O)c1` [Thymol, thymol], in test [1] (amount of thymol at the MIC), the “MIC Staphylococcus aureus, Thymol” value stood at 1.1 mg. In addition, the “MIC Escherichia coli, Thymol” value in test [2] (amount of thymol at the MIC) is 2 mg. Moreover, in test [3] (amount of thymol at the MIC), the “MIC Pseudomonas aeruginosa, Thymol” value is on record as 4.5 mg.
